Experimental data published in patent publication US5300527A, “Alkylamino-and alkylamino alkyl diarylketones” (Hoechst-Roussel Pharmaceuticals Incorporated, priority 1992, dated 1994).
Where a name gives a salt, the structure may show the parent alone. Read-outs that look alike come from different tables or passages of the source.

How the values were obtained:
[1] = test system: 2-phenyl-1,4-benzoquinone-induced writhing; assay: 2-phenyl-1,4-benzoquinone-induced writhing test in mice (analgesic activity); format: in vivo; settings: Mus musculus, sc, read-out: Inhibition in Writhing (%)
From the text: Compounds of the present invention are useful as analgesic agents due to their ability to alleviate pain in mammals. […] Exptl. Biol. Med. 95, 729 (1957)].

[2] = test system: scopolamine induced memory deficit; assay: Dark Avoidance Assay (reversal of scopolamine induced memory deficit); format: in vivo; settings: mice
Procedure: This utility can also be ascertained by determining the ability of these compounds to restore cholinergically deficient memory in the Dark Avoidance Assay. In this assay mice are tested for their ability to remember an unpleasant stimulus for a period of 24 hours. A mouse is placed in a chamber that contains a dark compartment; a strong incandescent light drives it to the dark compartment, where an electric shock is administered through metal plates on the floor. The animal is removed from the testing apparatus and tested again, 24 hours later, for the ability to remember the electric shock.
If scopolamine, an anticholinergic that is known to cause memory impairment, is administered before an animal's initial exposure to the test chamber, the animal re-enters the dark compartment shortly after being placed in the test chamber 24 hours later. This effect of scopolamine is blocked by an active test compound, resulting in a greater interval before re-entry into the dark compartment.
The results for an active compound are expressed as the percent of a group of animals in which the effect of scopolamine is blocked, as manifested by an increased interval between being placed in the test chamber and re-entering the dark compartment.

[3] = mice, dose 20 mg/kg of body wt., subcutaneous

Row | SMILES | inhibition in vivo at 20 mg/kg [1, 3] | further results
1 | CN(C)c1cccc(CC(=O)C(F)(F)c2ccccc2)c1 [1,1-Difluoro-3-[3-(dimethylamino)phenyl-1-phenyl-2-propanone] | 58% | 
2 | CN(C)c1cccc(OCC(=O)Cc2cccc(Cl)c2)c1 [1-(3-Chlorophenyl)-3-[3-(dimethylamino)phenoxy]-2-propanone] | 41% | 
3 | CN(C)c1cccc(CC(=O)Cc2cccc(Cl)c2)c1 [1-(3-Chlorophenyl)-3-[3-(dimethylamino)phenyl]-2-propanone] | 51% | 
4 | CN(C)c1ccc(C(=O)C(F)(F)c2ccccc2)cc1 [2,2-Difluoro-1-[4-(dimethylamino)phenyl]-2-phenylethanone] | 67% | 
5 | CN(C)c1cccc(C(=O)COc2cccc(Cl)c2)c1 [2-(3-Chlorophenoxy)-1-[3-(dimethylamino)phenyl]ethanone] | 69% | 
6 | CN(C)c1cccc(C(=O)Cc2cccc(Cl)c2)c1.Cl [2-(3-Chlorophenyl)-1-[3-(dimethylamino)phenyl]ethanone hydrochloride] |  | % of animals with scopolamine induced memory deficit reversal ([2]; dose 0.16 mg/kg, s.c.): 40%
7 | CN(C)c1cccc(C(=O)C(F)(F)c2cccc(Cl)c2)c1 [2-(3-Chlorophenyl)-2,2-difluoro-1-[3-(dimethylamino)phenyl]ethanone hydrochloride] |  | inhibition in vivo at 20 mg/kg [1]: 50%
8 | CN(C)c1ccc(C(=O)C(F)c2cccc(Cl)c2)cc1 (centres unmarked) [2-(3-Chlorophenyl)-2-fluoro-1-[4-(dimethylamino)phenyl]ethanone] | 44% | 
9 | CN(C)c1cccc(C(=O)C(F)(F)C(O)c2cccc(Cl)c2)c1 (centres unmarked) [3-(3-Chlorophenyl)-2,2-difluoro-3-hydroxy-1-[3-(dimethylamino)phenyl]propanone hydrochloride] | 63% | 
10 | CNC(=O)Oc1ccc2c(c1)[C@]1(C)CCN(C)[C@@H]1N2C [physostigmine, reference compound] |  | % of animals with scopolamine induced memory deficit reversal ([2]; dose 0.31 mg/kg, s.c. (reference)): 20%
11 | CCC(=O)O[C@](Cc1ccccc1)(c1ccccc1)[C@H](C)CN(C)C [propoxyphene, reference compound] |  | inhibition in vivo at 3.9 mg/kg [1]: 50%
